Measured values taken from PMC12339935 (Scientific Reports, 2025).
≈ marks a conversion by molar mass, not a printed value.

Assays:
Escherichia coli = details: literature value; cited from earlier work
S. aureus = details: literature value; cited from earlier work
[1] = system: Bacillus cereus ATCC 11778; assay: Antibacterial optical density microplate assay, B. cereus; type: cell-based; details: for MIC: Bacillus cereus, ATCC11778, read-out: Anti-Bacillus cereus (MIC, µg/ml); for Anti-Bacillus cereus (MIC, µg/ml): B. cereus ATCC 11778, maximum tested concentration 50 µg/ml
Mycobacterium bovis = details: cited from earlier work
[2] = system: Staphylococcus aureus ATCC 29213; assay: Antibacterial optical density microplate assay, S. aureus; type: cell-based; details: ATCC29213, read-out: Anti-Staphylococcus aureus (MIC, µg/ml)
in vitro [3] = details: human (MCF-7, NCI-H187); African green monkey (Vero)
Vero cells = details: non-cancerous, maximum tested concentration 50 µg/ml
[4] = system: MCF-7 (human breast cancer) cells; details: maximum tested concentration 50 µg/ml
[5] = system: NCI-H187 (human small-cell lung cancer) cells; details: maximum tested concentration 50 µg/ml
in vitro [6] = details: human
in vitro [7] = details: human; remark: listed apart in the source

SMILES: CC(=O)Nc1c2sscc-2n(C)c1=O [Compound 1, thiolutin]
- MIC against Escherichia coli (Escherichia coli): 6.25 µg/mL (≈ 27.4 µM)
- MIC against S. aureus (S. aureus): 3.125 µg/mL (≈ 13.7 µM)
- MIC [1]: 1.56 µg/mL (≈ 6.83 µM)
- MIC against Mycobacterium bovis (Mycobacterium bovis): 0.313 µg/mL (≈ 1.37 µM)
- MIC [2]: 3.13 µg/mL (≈ 13.7 µM)
- IC50 (in vitro [3]): 0.35 to 5.61 µM

SMILES: Nc1cccc2c(=O)[nH]c(=O)oc12 [Compound 3, 8-amino-2 H-benz[e][1,3]oxazine-2,4(3 H)-dione]
- Cytotoxicity (IC50, µM) Vero (Vero cells): Inactive
- Cytotoxicity (IC50, µM) MCF-7 [4]: Inactive
- Anti-Bacillus cereus (MIC, µg/ml) [1]: Inactive
- Cytotoxicity (IC50, µM) NCI-H187 [5]: Inactive

SMILES: NC(=O)c1cccc(O)c1O [Compound 5, 2,3-dihydroxybenzamide]
- IC50 (in vitro [6]): 33.8 µM
- Cytotoxicity (IC50, µM) Vero (Vero cells): Inactive
- Cytotoxicity (IC50, µM) MCF-7 [4]: Inactive
- Anti-Bacillus cereus (MIC, µg/ml) [1]: Inactive

SMILES: COc1cccc(C(N)=O)c1O [Compound 6, 2-hydroxy-3-methoxybenzamide]
- Cytotoxicity (IC50, µM) Vero (Vero cells): Inactive
- Cytotoxicity (IC50, µM) MCF-7 [4]: Inactive
- Anti-Bacillus cereus (MIC, µg/ml) [1]: Inactive
- Cytotoxicity (IC50, µM) NCI-H187 [5]: Inactive

SMILES: Cc1c2ccncc2c(C)c2c1[nH]c1ccccc12 [Ellipticine, reference compound]
- IC50 (in vitro [6]): 11.8 µM

SMILES: CO[C@H]1/C=C/O[C@@]2(C)Oc3c(C)c(O)c4c(O)c(c(/C=N/N5CCN(C)CC5)c(O)c4c3C2=O)NC(=O)/C(C)=C\C=C\[C@H](C)[C@H](O)[C@@H](C)[C@@H](O)[C@@H](C)[C@H](OC(C)=O)[C@@H]1C [Rifampicin, reference compound]
- MIC [1]: 0.16 to 0.63 µg/mL (≈ 0.194 to 0.766 µM)
- MIC [2]: 0.04 to 0.56 µg/mL (≈ 0.0486 to 0.68 µM)

SMILES: CC/C(=C(\c1ccccc1)c1ccc(OCCN(C)C)cc1)c1ccccc1 [Tamoxifen]
- IC50 (in vitro [7]): 43.4 µM

SMILES: CN[C@H](CC(C)C)C(=O)N[C@H]1C(=O)N[C@@H](CC(N)=O)C(=O)N[C@H]2C(=O)N[C@H]3C(=O)N[C@H](C(=O)N[C@H](C(=O)O)c4cc(O)cc(O)c4-c4cc3ccc4O)[C@H](O)c3ccc(c(Cl)c3)Oc3cc2cc(c3O[C@@H]2O[C@H](CO)[C@@H](O)[C@H](O)[C@H]2O[C@H]2C[C@](C)(N)[C@H](O)[C@H](C)O2)Oc2ccc(cc2Cl)[C@H]1O [Vancomycin, reference compound]
- MIC [1]: 1 to 2 µg/mL (≈ 0.69 to 1.38 µM)
- MIC [2]: 4 µg/mL (≈ 2.76 µM)
